Laboratory results as given in article PMC8523698, “Preclinical characterization of an intravenous coronavirus 3CL protease inhibitor for the potential treatment of COVID19” (Nature Communications, 2021).
Values joined by “and” are separate entries in the source; they are usually repeats but may differ in a detail not shown here. Equal entries are not always repeated. Where two headings read alike, the source gives them in different places.

What was measured:
[1] = Monkey pharmacokinetic study; conditions: monkey; for Total Concn in plasma: 1mg/kg IV PF-00835231 dosed (crossover), individual animals and mean
[2] = biological target: T1, OATP1B3 (Homo sapiens, UniProt Q9NPD5); test: Transporter inhibition using transfected HEK293 cells
T1 sequence (Q9NPD5 1-702): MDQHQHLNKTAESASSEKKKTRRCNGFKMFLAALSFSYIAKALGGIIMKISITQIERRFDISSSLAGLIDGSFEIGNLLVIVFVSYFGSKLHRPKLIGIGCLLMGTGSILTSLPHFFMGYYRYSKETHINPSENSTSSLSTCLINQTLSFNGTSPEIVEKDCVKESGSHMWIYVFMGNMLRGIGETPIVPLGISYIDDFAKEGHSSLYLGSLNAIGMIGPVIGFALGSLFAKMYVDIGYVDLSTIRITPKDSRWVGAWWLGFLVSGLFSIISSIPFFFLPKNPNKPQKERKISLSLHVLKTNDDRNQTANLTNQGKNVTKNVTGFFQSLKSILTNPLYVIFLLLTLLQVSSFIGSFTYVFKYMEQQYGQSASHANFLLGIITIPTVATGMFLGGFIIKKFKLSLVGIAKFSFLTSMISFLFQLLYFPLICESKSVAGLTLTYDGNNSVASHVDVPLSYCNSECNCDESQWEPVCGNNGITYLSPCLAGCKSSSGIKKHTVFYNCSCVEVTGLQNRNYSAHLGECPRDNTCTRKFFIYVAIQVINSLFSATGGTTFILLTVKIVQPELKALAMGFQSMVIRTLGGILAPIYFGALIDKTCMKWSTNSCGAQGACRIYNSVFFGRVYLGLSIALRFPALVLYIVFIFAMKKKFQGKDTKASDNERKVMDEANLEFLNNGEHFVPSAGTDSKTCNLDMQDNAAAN

[3] = biological target: MDR1/P-gp (Homo sapiens, UniProt P08183); test: Transporter inhibition using membrane vesicles; conditions: for % PGP Uptake Activity: uptake of N-methyl quinidine by MDR1, single replicates
[4] = biological target: T2, CYP1A2 (Homo sapiens, UniProt P05177); test: Reversible CYP inhibition in human liver microsomes; conditions: for activity at 0.1 µM / activity at 0.214 µM / activity at 0.979 µM / activity at 2.09 µM / activity at 4.48 µM / activity at 20.5 µM / activity at 43.8 µM / activity at 93.5 µM / activity at 200 µM: pH 7.4, Percent of Control Activity
T2 sequence (P05177 1-516): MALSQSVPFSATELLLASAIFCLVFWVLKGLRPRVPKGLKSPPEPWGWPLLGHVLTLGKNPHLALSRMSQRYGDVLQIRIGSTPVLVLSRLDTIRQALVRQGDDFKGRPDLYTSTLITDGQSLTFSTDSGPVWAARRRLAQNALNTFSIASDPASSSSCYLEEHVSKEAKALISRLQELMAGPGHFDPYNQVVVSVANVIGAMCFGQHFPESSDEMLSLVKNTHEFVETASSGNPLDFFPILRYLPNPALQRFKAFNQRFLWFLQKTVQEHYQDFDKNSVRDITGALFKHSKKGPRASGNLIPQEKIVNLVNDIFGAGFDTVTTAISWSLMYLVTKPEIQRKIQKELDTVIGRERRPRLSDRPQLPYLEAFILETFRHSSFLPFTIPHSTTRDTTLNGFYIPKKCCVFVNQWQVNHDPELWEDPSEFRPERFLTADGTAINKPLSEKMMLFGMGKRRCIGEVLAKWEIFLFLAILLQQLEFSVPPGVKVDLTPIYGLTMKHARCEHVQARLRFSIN

[5] = PF-00835231 active dosed 1mg/kg intravenous (crossover), individual monkeys, 1 mg/kg

Chain of MDR1/P-gp (P08183 whole entry): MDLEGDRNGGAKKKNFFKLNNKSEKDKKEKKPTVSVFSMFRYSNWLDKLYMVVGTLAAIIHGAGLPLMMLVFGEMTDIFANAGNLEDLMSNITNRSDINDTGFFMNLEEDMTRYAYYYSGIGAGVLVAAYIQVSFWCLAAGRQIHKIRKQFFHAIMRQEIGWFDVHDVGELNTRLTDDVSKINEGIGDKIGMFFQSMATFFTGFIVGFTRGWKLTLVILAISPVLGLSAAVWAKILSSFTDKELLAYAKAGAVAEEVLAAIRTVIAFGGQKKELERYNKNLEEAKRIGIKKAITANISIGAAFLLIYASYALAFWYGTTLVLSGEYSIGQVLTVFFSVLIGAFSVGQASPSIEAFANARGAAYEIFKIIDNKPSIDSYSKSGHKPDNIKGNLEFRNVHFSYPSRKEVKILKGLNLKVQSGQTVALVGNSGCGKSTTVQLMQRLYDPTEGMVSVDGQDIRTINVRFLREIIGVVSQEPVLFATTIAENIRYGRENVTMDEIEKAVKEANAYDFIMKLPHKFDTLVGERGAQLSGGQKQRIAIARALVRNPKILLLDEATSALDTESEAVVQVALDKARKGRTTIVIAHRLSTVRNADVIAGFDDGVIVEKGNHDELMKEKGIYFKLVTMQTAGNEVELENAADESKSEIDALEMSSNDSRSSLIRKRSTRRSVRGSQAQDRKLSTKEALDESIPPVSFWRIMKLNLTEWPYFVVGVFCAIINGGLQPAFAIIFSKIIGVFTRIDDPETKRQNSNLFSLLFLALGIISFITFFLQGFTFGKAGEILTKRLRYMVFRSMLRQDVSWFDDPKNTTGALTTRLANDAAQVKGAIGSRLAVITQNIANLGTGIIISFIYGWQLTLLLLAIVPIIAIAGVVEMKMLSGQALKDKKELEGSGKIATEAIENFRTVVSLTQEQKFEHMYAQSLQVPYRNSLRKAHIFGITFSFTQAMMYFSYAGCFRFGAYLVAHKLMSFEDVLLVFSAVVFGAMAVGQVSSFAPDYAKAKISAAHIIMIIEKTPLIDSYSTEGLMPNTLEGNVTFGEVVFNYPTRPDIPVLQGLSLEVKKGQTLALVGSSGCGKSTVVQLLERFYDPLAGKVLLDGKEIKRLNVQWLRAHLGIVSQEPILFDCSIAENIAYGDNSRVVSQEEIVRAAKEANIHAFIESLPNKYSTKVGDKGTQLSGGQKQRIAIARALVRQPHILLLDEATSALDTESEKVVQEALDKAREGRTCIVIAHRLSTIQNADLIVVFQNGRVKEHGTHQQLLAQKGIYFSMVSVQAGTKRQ

In the case of `COc1cccc2[nH]c(C(=O)N[C@@H](CC(C)C)C(=O)N[C@@H](C[C@@H]3CCNC3=O)C(=O)CO)cc12` [PF-00835231], the “Total Concn in plasma” value ([1]; Time 4, 1 mg/kg) is reported as 14 ng/mL and 13 ng/mL, the “Total Concn in plasma” value ([1]; Time 7, 1 mg/kg) is reported as 2.87 ng/mL and 2.25 ng/mL and 2.6 ng/mL and the AUCt ([1]; PF-00835231 5mg/kg PO dose, individual monkeys, 5 mg/kg) is reported as 0.603 ng·h/mL. For the same compound, the AUCinf [1, 5] was 552 ng·h/mL, the Half life [1, 5] was 1.27 h and the Vdss [1, 5] was 1.51 L/kg. For the same compound, the clearance [1, 5] was 30.2 mL/min/kg, the “Oral F%” value ([1]; 5mg/kg PO vs 1.0mg/kg IV) was < 0.1% and < 2% and the IC50 [2] was 51.6 µM. For the same compound, the IC50 ([2]; human, HEK293 cells stably transfected with OATP1B3, pH 7.4, probe rosuvastatin (0.5 µM)) was > 20 µM, the IC50 ([3]; IC50, N-methyl quinidine (0.2 µM)) was 65.6 µM and the IC50 at […] ([3]; human, human MDR1 (P-gp) membrane vesicles, pH 7.4, probe N-methyl quinidine (0.2 µM), IC50, N-methyl quinidine (0.2 µM)) was > 20 µM. The “% PGP Uptake Activity” value ([3]; inhibitor concentration 0.0732 uM) was 93.3145% and 114.451% and 106.12%, the “% PGP Uptake Activity” value ([3]; inhibitor concentration 0.2930 uM) was 78.5035% and 118.154% and 104.268% and the “% PGP Uptake Activity” value ([3]; inhibitor concentration 1.1719 uM) was 118.617% and 114.451%. For the same compound, the “% PGP Uptake Activity” value ([3]; inhibitor concentration 4.6875 uM) was 113.525% and 107.354% and 108.897%, the “% PGP Uptake Activity” value ([3]; inhibitor concentration 18.7500 uM) was 94.703% and 96.0915% and 89.1489% and the “% PGP Uptake Activity” value ([3]; inhibitor concentration 300.0000 uM) was 17.0995% and 14.0139% and 11.9619%. For the same compound, the “Percent of Control Activity” value ([4]; CYP 1A2, 0.1 µM, 30-Minute Preincubation, 0.1 µM) was 100.7% and 97.2%, the “Percent of Control Activity” value ([4]; CYP 1A2, 0.1 µM, Zero-Minute Preincubation, 0.1 µM) was 91.5% and the “Percent of Control Activity” value ([4]; CYP 1A2, 0.214 µM, 30-Minute Preincubation, 0.214 µM) was 101.6% and 102.2%. The “Percent of Control Activity” value ([4]; CYP 1A2, 0.214 µM, Zero-Minute Preincubation, 0.214 µM) was 97.3%, the “Percent of Control Activity” value ([4]; CYP 1A2, 0.979 µM, 30-Minute Preincubation, 0.979 µM) was 100.1% and 99.5% and the “Percent of Control Activity” value ([4]; CYP 1A2, 0.979 µM, Zero-Minute Preincubation, 0.979 µM) was 99.8% and 102.1%. The “Percent of Control Activity” value ([4]; CYP 1A2, 2.09 µM, 30-Minute Preincubation, 2.09 µM) was 98.8%, the “Percent of Control Activity” value ([4]; CYP 1A2, 2.09 µM, Zero-Minute Preincubation, 2.09 µM) was 90.6% and 85.1% and the “Percent of Control Activity” value ([4]; CYP 1A2, 4.48 µM, 30-Minute Preincubation, 4.48 µM) was 99.2% and 99.5%. For the same compound, the “Percent of Control Activity” value ([4]; CYP 1A2, 4.48 µM, Zero-Minute Preincubation, 4.48 µM) was 97.7%, the “Percent of Control Activity” value ([4]; CYP 1A2, 20.5 µM, 30-Minute Preincubation, 20.5 µM) was 99.6% and 97.2% and the “Percent of Control Activity” value ([4]; CYP 1A2, 20.5 µM, Zero-Minute Preincubation, 20.5 µM) was 95.6% and 98.0%. For the same compound, the “Percent of Control Activity” value ([4]; CYP 1A2, 43.8 µM, 30-Minute Preincubation, 43.8 µM) was 96.6% and 97.7%, the “Percent of Control Activity” value ([4]; CYP 1A2, 43.8 µM, Zero-Minute Preincubation, 43.8 µM) was 92.9% and 93.4% and the “Percent of Control Activity” value ([4]; CYP 1A2, 93.5 µM, 30-Minute Preincubation, 93.5 µM) was 90.5% and 95.8%. For the same compound, the “Percent of Control Activity” value ([4]; CYP 1A2, 93.5 µM, Zero-Minute Preincubation, 93.5 µM) was 76.6% and 87.4%, the “Percent of Control Activity” value ([4]; CYP 1A2, 200 µM, 30-Minute Preincubation, 200 µM) was 92.7% and 91.0% and the “Percent of Control Activity” value ([4]; CYP 1A2, 200 µM, Zero-Minute Preincubation, 200 µM) was 81.0% and 74.4%. The IC50 ([4]; human, microsomes, pH 7.4) was > 200 µM, the activity at 0.1 µM ([4]; human, microsomes, CYP 1A2, 0.1 µM, 30-Minute Preincubation) was 98% and the activity at 0.1 µM ([4]; human, microsomes, CYP 1A2, 0.1 µM, Zero-Minute Preincubation) was 97.8%. It also gave an activity at 0.214 µM ([4]; human, microsomes, CYP 1A2, 0.214 µM, 30-Minute Preincubation) of 96.5%, an activity at 0.214 µM ([4]; human, microsomes, CYP 1A2, 0.214 µM, Zero-Minute Preincubation) of 98.4% and an activity at 0.979 µM ([4]; human, microsomes, CYP 1A2, 0.979 µM, 30-Minute Preincubation) of 98.9%. For the same compound, the activity at 0.979 µM ([4]; human, microsomes, CYP 1A2, 0.979 µM, Zero-Minute Preincubation) was 97.6%, the activity at 2.09 µM ([4]; human, microsomes, CYP 1A2, 2.09 µM, 30-Minute Preincubation) was 98.3% and the activity at 2.09 µM ([4]; human, microsomes, CYP 1A2, 2.09 µM, Zero-Minute Preincubation) was 97.8%. The activity at 4.48 µM ([4]; human, microsomes, CYP 1A2, 4.48 µM, 30-Minute Preincubation) was 97%, the activity at 4.48 µM ([4]; human, microsomes, CYP 1A2, 4.48 µM, Zero-Minute Preincubation) was 99.3% and the activity at 20.5 µM ([4]; human, microsomes, CYP 1A2, 20.5 µM, 30-Minute Preincubation) was 97.1%. It also gave an activity at 20.5 µM ([4]; human, microsomes, CYP 1A2, 20.5 µM, Zero-Minute Preincubation) of 99.4%, an activity at 43.8 µM ([4]; human, microsomes, CYP 1A2, 43.8 µM, 30-Minute Preincubation) of 95.9% and an activity at 43.8 µM ([4]; human, microsomes, CYP 1A2, 43.8 µM, Zero-Minute Preincubation) of 94.2%. It also gave an activity at 93.5 µM ([4]; human, microsomes, CYP 1A2, 93.5 µM, 30-Minute Preincubation) of 89.6%, an activity at 93.5 µM ([4]; human, microsomes, CYP 1A2, 93.5 µM, Zero-Minute Preincubation) of 84.6% and an activity at 200 µM ([4]; human, microsomes, CYP 1A2, 200 µM, 30-Minute Preincubation) of 93.6%. For the same compound, the activity at 200 µM ([4]; human, microsomes, CYP 1A2, 200 µM, Zero-Minute Preincubation) was 81.3%.
